Measured values taken from the C3SDB collision cross section collection.
Values belong to the compound of their own block, whether it stands above or below them.

Experiments:
[1] = [M+H]+; instrument: TW
[2] = instrument: DT, stepped-field
[3] = instrument: DT, single field, calibrated with Agilent tune mix (Agilent)
[4] = instrument: TW, calibrated with phosphatidylcholines (ESI+) and phosphatidylethanolamines (ESI-)

collision cross section (N2) [1]: 169.35 Å²
SMILES: Ic2ccc1\N=C(\OCCC)N(C(=O)c1c2)CCC [Proquinazid]

SMILES: C=C(C)C1Cc2c(ccc3c2OC2COc4cc(OC)c(OC)cc4C2C3=O)O1 (centres undefined) [Rotenone]
collision cross section (N2) [1]: 195.01 Å²

SMILES: CNC(=O)Oc1cccc(N=CN(C)C)c1 [Formetanate]
collision cross section (N2) [1]: 153.76 Å²

collision cross section (N2) [1]: 332.4 Å²
SMILES: CC[C@H]1OC(=O)C[C@@H](O)[C@H](C)[C@@H](O[C@@H]2O[C@H](C)[C@@H](O[C@H]3C[C@@](C)(O)[C@@H](O)[C@H](C)O3)[C@H](N(C)C)[C@H]2O)[C@@H](CC=O)C[C@@H](C)C(=O)/C=C/C(C)=C/[C@@H]1CO[C@@H]1O[C@H](C)[C@@H](O)[C@@H](OC)[C@H]1OC [Tylosine]

SMILES: COP(=O)(OC)C(O)C(Cl)(Cl)Cl (centres undefined) [Trichlorfon]
collision cross section (N2) [1]: 136.12 Å²

collision cross section (N2) [1]: 168 Å²
SMILES: CCC(NC(C)C)C(O)c1ccc(O)c2[nH]c(=O)ccc12 (centres undefined) [Procaterol]

collision cross section (N2) [1]: 201.8 Å²
SMILES: CCC[C@@H]1C[C@@H](C(=O)N[C@@H]([C@H]2O[C@H](SC)[C@H](O)[C@@H](O)[C@H]2O)[C@@H](C)O)N(C)C1 [Lincomycin]

SMILES: C[C@]12C=CC3=C4CCC(=O)C=C4CC[C@H]3[C@@H]1CC[C@@H]2O [17B-Trenbolone]
collision cross section (N2) [1]: 163.3 Å²

SMILES: CON(C)C(=O)Nc1ccc(Br)c(Cl)c1 [Chlorbromuron]
collision cross section (N2) [1]: 152.25 Å²

collision cross section (N2) [1]: 159.7 Å²
SMILES: Cc1cc(C)nc(NS(=O)(=O)c2ccc(N)cc2)n1 [Sulfadimidine]

collision cross section (N2) ([2]; [M+Na]+): 280.6 Å²
collision cross section (N2) ([3]; [M+Na]+): 281.2 Å²
collision cross section (N2) ([3]; [M-H]-): 265.2 Å²
collision cross section (N2) ([4]; [M-H]-): 265.7 Å²
SMILES: CCCCC/C=C\C/C=C\C/C=C\CCCCCCC(=O)O[C@H](COC(=O)CCCCCCC/C=C\CCCCCC)COP(=O)(O)OCCN [PE(36:4)]

SMILES: CCc1nn(C)c(C(=O)NCc2ccc(C(C)(C)C)cc2)c1Cl [Tebufenpyrad]
collision cross section (N2) [1]: 191.25 Å²

collision cross section (N2) [1]: 197.3 Å²
SMILES: CN(C)[C@@H]1C(O)=C(C(N)=O)C(=O)[C@@]2(O)C(O)=C3C(=O)c4c(O)cccc4[C@@](C)(O)[C@H]3C[C@@H]12 [Tetracycline]

collision cross section (N2) [1]: 168.9 Å²
SMILES: CC(CCc1ccc(O)cc1)NCC(O)c1ccc(O)cc1 (centres undefined) [Ractopamine]

collision cross section (N2) ([2]; [M+K]+): 288.7 Å²
collision cross section (N2) ([2]; [M+Na]+): 285 Å²
collision cross section (N2) ([3]; [M+Na]+): 283.6 Å²
collision cross section (N2) ([3]; [M-H]-): 269.8 Å²
collision cross section (N2) ([4]; [M+H]+): 275.7 Å²
collision cross section (N2) ([4]; [M-H]-): 269.2 Å²
SMILES: CC/C=C\C/C=C\C/C=C\C/C=C\CCCCC(=O)OC[C@H](COP(=O)(O)OCCN)OC(=O)CCCCCCCCC/C=C\C/C=C\CCCCC [PE(38:6)]

collision cross section (N2) ([2]; [M+Na]+): 289.2 Å²
collision cross section (N2) ([3]; [M+Na]+): 287.3 Å²
collision cross section (N2) ([4]; [M+H]+): 280.7 Å²
SMILES: CC/C=C\C/C=C\C/C=C\C/C=C\CCCCC(=O)OC[C@H](COP(=O)(O)OCCN)OC(=O)CCCCC/C=C\C/C=C\C/C=C\C/C=C\CCCCC [PE(40:8)]

SMILES: CC1COC(Cn2cncn2)(c2ccc(Oc3ccc(Cl)cc3)cc2Cl)O1 (centres undefined) [Difenoconazole]
collision cross section (N2) [1]: 198.48 Å²

collision cross section (N2) [1]: 158.3 Å²
SMILES: CC(C)(C)NCC(O)c1ccc(O)c(CO)c1 (centres undefined) [Salbutamol]

collision cross section (N2) ([2]; [M+Na]+): 288.5 Å²
collision cross section (N2) ([3]; [M+H]+): 281.3 Å²
collision cross section (N2) ([3]; [M+Na]+): 287.5 Å²
collision cross section (N2) ([3]; [M-H]-): 269.9 Å²
collision cross section (N2) ([4]; [M+H]+): 278.7 Å²
collision cross section (N2) ([4]; [M-H]-): 268.8 Å²
SMILES: CCCCCCCCCC/C=C\CCCCCCCCCC(=O)O[C@H](COC(=O)CCCCCCCCCCCCC)COP(=O)(O)OCCN [PE(36:1)]

collision cross section (N2) [1]: 149.9 Å²
SMILES: Nc1ccc(S(=O)(=O)c2ccc(N)cc2)cc1 [Dapsone]

collision cross section (N2) [1]: 153.7 Å²
SMILES: Cc1c(Cl)cccc1Nc1ccccc1C(=O)O [Tolfenamic acid]

SMILES: COC(=O)Nc1nc2ccccc2[nH]1 [Carbendazim]
collision cross section (N2) [1]: 134.94 Å²

collision cross section (N2) [1]: 173.38 Å²
SMILES: C=C1C[C@@]23CC[C@H]4[C@@](C)(CCC[C@@]4(C)C(=O)O)[C@@H]2CC[C@]1(O)C3 [Steviol]

collision cross section (N2) ([3]; [M+H]+): 278 Å²
collision cross section (N2) ([4]; [M+H]+): 276.9 Å²
collision cross section (N2) ([4]; [M-H]-): 268.1 Å²
SMILES: CC/C=C\C/C=C\C/C=C\C/C=C\C/C=C\C/C=C\CCC(=O)O[C@H](CO/C=C\CCCCCCCCCCCCCC)COP(=O)(O)OCCN [PE(p38:6)]

collision cross section (N2) ([3]; [M+NH4]+): 270.8 Å²
collision cross section (N2) ([4]; [M-H]-): 257.9 Å²
SMILES: CCCC/C=C\C/C=C\CCCCCCCC(=O)O[C@H](COC(=O)CCCCCCC/C=C\CCCCCCCCC)COP(=O)(O)O [PA(36:3)]

collision cross section (N2) ([3]; [M+HCOO]-): 293 Å²
collision cross section (N2) ([3]; [M+H]+): 292.9 Å²
collision cross section (N2) ([3]; [M+Na]+): 296.8 Å²
collision cross section (N2) ([4]; [M+CH3COO]-): 295.4 Å²
collision cross section (N2) ([4]; [M+H]+): 289.7 Å²
SMILES: CCCCC/C=C\C/C=C\C/C=C\CCCCC(=O)OC[C@H](COP(=O)([O-])OCC[N+](C)(C)C)OC(=O)CCCCCCCCC/C=C\C/C=C\CCCCC [PC(38:5)]

collision cross section (N2) ([3]; [M-H]-): 276.1 Å²
collision cross section (N2) ([4]; [M+H]+): 284.7 Å²
collision cross section (N2) ([4]; [M-H]-): 274.8 Å²
SMILES: CC/C=C\C/C=C\C/C=C\C/C=C\C/C=C\CCCC(=O)O[C@H](CO/C=C\CCCCCCCCCCCCCCCCCC)COP(=O)(O)OCCN [PE(p40:5)]

collision cross section (N2) ([3]; [M+H]+): 299.3 Å²
collision cross section (N2) ([3]; [M+Na]+): 297.6 Å²
collision cross section (N2) ([3]; [M-H]-): 289.3 Å²
collision cross section (N2) ([4]; [M+Na]+): 293.3 Å²
collision cross section (N2) ([4]; [M-H]-): 288.7 Å²
SMILES: CCCC/C=C\CCCCCCCC(=O)OC[C@H](COP(=O)(O)O[C@H]1C(O)C(O)C(O)[C@@H](O)C1O)OC(=O)CCCCCCCCC/C=C\CCCCCCCCCC (some centres undefined) [PI(36:2)]

collision cross section (N2) ([3]; [M-H]-): 265.6 Å²
collision cross section (N2) ([4]; [M-H]-): 265.2 Å²
SMILES: CC/C=C\C/C=C\C/C=C\CCCCCCCC(=O)O[C@H](CO/C=C\CCCCCCCCCCCCCCCC)COP(=O)(O)OCCN [PE(p36:3)]

collision cross section (N2) ([3]; [M+H]+): 295 Å²
collision cross section (N2) ([4]; [M+CH3COO]-): 296.7 Å²
collision cross section (N2) ([4]; [M+H]+): 291.9 Å²
SMILES: CCCCC/C=C\C/C=C\CCCCCCCCCC(=O)O[C@H](COC(=O)CCCCCCCCC/C=C\CCCCCC)COP(=O)([O-])OCC[N+](C)(C)C [PC(38:3)]

collision cross section (N2) ([3]; [M+H]+): 284.5 Å²
collision cross section (N2) ([4]; [M+H]+): 284.1 Å²
SMILES: CCCCC/C=C\C/C=C\C/C=C\C/C=C\C/C=C\CCC(=O)O[C@H](COC(=O)CCCCCCCCCCCCC)COP(=O)([O-])OCC[N+](C)(C)C [PC(36:5)]

collision cross section (N2) ([3]; [M+H]+): 307.1 Å²
collision cross section (N2) ([3]; [M+NH4]+): 308.6 Å²
collision cross section (N2) ([3]; [M+Na]+): 305.8 Å²
collision cross section (N2) ([3]; [M-H]-): 297.7 Å²
collision cross section (N2) ([4]; [M+Na]+): 301.1 Å²
collision cross section (N2) ([4]; [M-H]-): 296.5 Å²
SMILES: CC/C=C\C/C=C\C/C=C\C/C=C\CCCCC(=O)OC[C@H](COP(=O)(O)O[C@H]1C(O)C(O)C(O)[C@@H](O)C1O)OC(=O)CCCCCCCCC/C=C\CCCCCCCCCC (some centres undefined) [PI(40:5)]

collision cross section (N2) ([3]; [M+H]+): 298.8 Å²
collision cross section (N2) ([3]; [M+Na]+): 302 Å²
collision cross section (N2) ([4]; [M+H]+): 295.5 Å²
SMILES: CCCCC/C=C\C/C=C\C/C=C\C/C=C\CCCCCC(=O)O[C@H](COC(=O)CCCCCCC/C=C\CCCCCCCC)COP(=O)([O-])OCC[N+](C)(C)C [PC(40:5)]

collision cross section (N2) ([3]; [M+H]+): 293.6 Å²
collision cross section (N2) ([4]; [M+H]+): 293.2 Å²
SMILES: CCCCC/C=C\C/C=C\C/C=C\C/C=C\CCCCCC(=O)O[C@H](COC(=O)CCCC/C=C\C/C=C\C/C=C\CCCCC)COP(=O)([O-])OCC[N+](C)(C)C [PC(40:7)]
